These results are taken from ChEMBL document CHEMBL1201862, “PubChem BioAssay data set” (2004).

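These data come from cells grown in 96-well plates and exposed to compound for 48 hours at five concentrations. The concentration for 50% growth inhibition is given as GI50.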 The source made the active and inactive calls. Cut-off read from the data, not from the text of the source: active = GI50 up to about 1.1 µM and inactive = higher. Bounds are passed on as bounds.

Some test systems named below: HL-60; BT-549; NCI/ADR-RES; M14; COLO 205; UACC-257; OVCAR-8; NCI-H522; NCI-H23; RPMI-8226; OVCAR-4; T47D; UACC-62; MOLT-4; SW-620; HOP-92; SK-MEL-2; ACHN; RXF 393; LOX IMVI.
Test in all cases: NCI-60 cell line screen, 48 h

Consider `CC1Oc2cc3c(-c4c(O)cc(O)c5c(O)c6c(cc45)OC(C)C(C)C6=O)c(O)cc(O)c3c(O)c2C(=O)C1C` (stereo not given), for which the GI50 with HL-60 is 0.24 µM (active); with BT-549, 0.0605 µM (active); with NCI/ADR-RES it was 0.162 µM (active); with M14 it was 0.226 µM (active); in the experiment with COLO 205, 0.17 µM (active); in the experiment on UACC-257, 0.289 µM (active). The GI50 was 0.0859 µM (active) with OVCAR-8; 0.343 µM (active) with NCI-H522; 0.122 µM (active) with NCI-H23; 0.0489 µM (active) in the experiment on RPMI-8226; 0.0869 µM (active) with OVCAR-4; 0.259 µM (active) with T47D. Moreover, the GI50 in the experiment on UACC-62 is 0.372 µM (active); in the experiment with MOLT-4, 0.109 µM (active); with SW-620, 0.136 µM (active); with HOP-92, 0.184 µM (active); with SK-MEL-2 it was 0.101 µM (active); with ACHN, 0.183 µM (active). Moreover, the GI50 in the experiment on RXF 393 is 0.0173 µM (active).
As to `CCCC1C(=O)Nc2cccc3ncn(c23)C1=O` (stereo not given), the GI50 in the experiment on HL-60, with BT-549, with NCI/ADR-RES, in the experiment on M14, with COLO 205 and with UACC-257 was > 100 µM (inactive) in each case. Besides, the GI50 in the experiment with OVCAR-8, in the experiment on NCI-H23, in the experiment with RPMI-8226, in the experiment with OVCAR-4, in the experiment on T47D and in the experiment on UACC-62 was > 100 µM (inactive) each time. Besides, the GI50 with MOLT-4, in the experiment with SW-620, in the experiment on HOP-92, with SK-MEL-2, in the experiment on ACHN and with RXF 393 was > 100 µM (inactive) each time.
In the case of `O=C1CC(=O)c2c(Cl)sc(Cl)c21`, the GI50 with HL-60 is 30.3 µM (inactive); in the experiment on BT-549, > 100 µM (inactive); with NCI/ADR-RES, > 100 µM (inactive); in the experiment on M14 it was > 100 µM (inactive); in the experiment on COLO 205, > 100 µM (inactive); with UACC-257, > 100 µM (inactive). Besides, the GI50 was 52.2 µM (inactive) in the experiment on OVCAR-8; 23.8 µM (inactive) with NCI-H522; 51.6 µM (inactive) in the experiment on NCI-H23; 29.2 µM (inactive) with OVCAR-4; > 100 µM (inactive) in the experiment with T47D; 92.3 µM (inactive) in the experiment with UACC-62. The GI50 was 34.1 µM (inactive) with MOLT-4; 91 µM (inactive) in the experiment with SW-620; > 100 µM (inactive) in the experiment with HOP-92; 52.8 µM (inactive) in the experiment on LOX IMVI; > 100 µM (inactive) in the experiment on SK-MEL-2; > 100 µM (inactive) in the experiment with ACHN. For the same compound, the GI50 in the experiment with RXF 393 was 16.1 µM (inactive).
With `COC(=O)/C(=N\NC(N)=O)C(C(=O)C(=O)Nc1ccccc1OC)c1nc2ccc([N+](=O)[O-])cc2nc1O` (stereo not given), the GI50 in the experiment with HL-60, with BT-549, in the experiment on NCI/ADR-RES, in the experiment on M14, in the experiment on UACC-257 and in the experiment with OVCAR-8 was > 100 µM (inactive) in each case. In addition, the GI50 in the experiment on NCI-H522 is > 100 µM (inactive); in the experiment with NCI-H23, > 100 µM (inactive); in the experiment on RPMI-8226 it was > 100 µM (inactive); in the experiment on OVCAR-4, 53 µM (inactive); with T47D it was > 100 µM (inactive); with UACC-62 it was > 100 µM (inactive). Also, the GI50 with MOLT-4 was > 10 µM (inactive); in the experiment with SW-620 it was > 100 µM (inactive); in the experiment with HOP-92, > 100 µM (inactive); in the experiment on LOX IMVI it was > 100 µM (inactive); in the experiment on SK-MEL-2 it was > 100 µM (inactive); in the experiment with ACHN it was > 100 µM (inactive). Moreover, in the experiment on RXF 393, the GI50 is > 100 µM (inactive).
Consider `COC(=O)c1c(C)nc(C)c(N=O)c1-c1ccccc1C(F)(F)F`, for which the GI50 is 8 µM (inactive) with HL-60; 18.5 µM (inactive) with BT-549; 20.6 µM (inactive) in the experiment with NCI/ADR-RES; 20 µM (inactive) with M14; 31.9 µM (inactive) in the experiment on COLO 205; 14 µM (inactive) with UACC-257. Further, the GI50 with OVCAR-8 was 17.9 µM (inactive); with NCI-H522, 4.97 µM (inactive); in the experiment with NCI-H23, 20.5 µM (inactive); with RPMI-8226, 73.8 µM (inactive); with OVCAR-4, 16.1 µM (inactive); in the experiment on T47D, 17.3 µM (inactive). Further, the GI50 was 27.6 µM (inactive) with UACC-62; 6.25 µM (inactive) in the experiment on MOLT-4; 15.5 µM (inactive) in the experiment on SW-620; 17.3 µM (inactive) in the experiment with HOP-92; 14.7 µM (inactive) with LOX IMVI; 36.1 µM (inactive) with SK-MEL-2. Besides, the GI50 is 32.9 µM (inactive) in the experiment on ACHN and 15.3 µM (inactive) with RXF 393.
As for `COCc1nc2c(OC)c(-c3nc4ccc(N5CCN(C)CC5)nc4[nH]3)cc(OC)c2[nH]1`, the GI50 in the experiment on HL-60 was 30.7 µM (inactive); in the experiment with BT-549, > 100 µM (inactive); in the experiment with NCI/ADR-RES it was > 100 µM (inactive); in the experiment with M14 it was 21.3 µM (inactive); with COLO 205 it was 37.5 µM (inactive); in the experiment with UACC-257, 24 µM (inactive). Further, the GI50 in the experiment on OVCAR-8 was 82.6 µM (inactive); in the experiment with NCI-H522, 37.7 µM (inactive); with NCI-H23, 62.5 µM (inactive); in the experiment with OVCAR-4, 46.1 µM (inactive); in the experiment on T47D, 53 µM (inactive); in the experiment on UACC-62 it was > 100 µM (inactive). Moreover, the GI50 with MOLT-4 was 37.1 µM (inactive); with SW-620, 39.1 µM (inactive); in the experiment with HOP-92, > 100 µM (inactive); in the experiment with LOX IMVI, 30.8 µM (inactive); with ACHN, 62.2 µM (inactive); in the experiment with RXF 393, 27.2 µM (inactive).
Turning to `CC1(C)OCC(C2OC(N3O[C@H](CI)C[C@@H]3c3ccccc3)C3OC(C)(C)OC23)O1` (stereo not given in full), the GI50 is 66.5 µM (inactive) in the experiment on HL-60; 99.3 µM (inactive) with BT-549; > 100 µM (inactive) with NCI/ADR-RES; 82 µM (inactive) in the experiment on M14; > 100 µM (inactive) in the experiment on COLO 205; > 100 µM (inactive) in the experiment on UACC-257. Moreover, the GI50 with NCI-H522 was > 100 µM (inactive); in the experiment on NCI-H23 it was > 100 µM (inactive); with RPMI-8226, 43 µM (inactive); with OVCAR-4, > 100 µM (inactive); in the experiment with T47D it was > 100 µM (inactive); in the experiment with UACC-62, > 100 µM (inactive). The GI50 in the experiment with SW-620, in the experiment with HOP-92, with LOX IMVI, in the experiment on SK-MEL-2, in the experiment on ACHN and in the experiment with RXF 393 was > 100 µM (inactive) each time.
On to `CC(=O)Oc1c(C)c2c(c3ncccc13)OC(C)C2` (stereo not given), for which the GI50 with HL-60 was 7.4 µM (inactive); in the experiment on BT-549 it was 21.1 µM (inactive); with NCI/ADR-RES it was 15.6 µM (inactive); in the experiment on M14, 15.2 µM (inactive); in the experiment with COLO 205, 19.4 µM (inactive); in the experiment with UACC-257, 14.8 µM (inactive). The GI50 in the experiment on OVCAR-8 is 14.5 µM (inactive); in the experiment on NCI-H522, 4.29 µM (inactive); with NCI-H23, 17.3 µM (inactive); in the experiment on RPMI-8226, 16.7 µM (inactive); in the experiment on OVCAR-4, 16.3 µM (inactive); in the experiment on T47D, 9.14 µM (inactive). Further, the GI50 with UACC-62 is 12.2 µM (inactive); in the experiment on MOLT-4 it was 6.41 µM (inactive); in the experiment with SW-620, 14.2 µM (inactive); with HOP-92, 14.7 µM (inactive); in the experiment with SK-MEL-2, 18.1 µM (inactive); with ACHN, 11.8 µM (inactive). Also, in the experiment with RXF 393, the GI50 is 14.8 µM (inactive).
